The results in this text go back to publication PMC7026418, “The kinase polypharmacology landscape of clinical PARP inhibitors” (Scientific Reports, 2020).

Among the targets are PKN1 (Homo sapiens, UniProt Q16512); MET(Y1235D) (Homo sapiens, UniProt P08581, Y1235D); MKNK2 (Homo sapiens, UniProt Q9HBH9); CIT (Homo sapiens, UniProt O14578).
Holding throughout (experiment): biochemical
Common to all, as to set-up: DiscoveRx KINOMEscan active site-directed competition binding; percent of control kinase bound to immobilised ligand

Another test addresses T1, ARK5 (Homo sapiens, UniProt O60285).
T1 construct: gene NUAK1
T1 sequence (O60285 1-661): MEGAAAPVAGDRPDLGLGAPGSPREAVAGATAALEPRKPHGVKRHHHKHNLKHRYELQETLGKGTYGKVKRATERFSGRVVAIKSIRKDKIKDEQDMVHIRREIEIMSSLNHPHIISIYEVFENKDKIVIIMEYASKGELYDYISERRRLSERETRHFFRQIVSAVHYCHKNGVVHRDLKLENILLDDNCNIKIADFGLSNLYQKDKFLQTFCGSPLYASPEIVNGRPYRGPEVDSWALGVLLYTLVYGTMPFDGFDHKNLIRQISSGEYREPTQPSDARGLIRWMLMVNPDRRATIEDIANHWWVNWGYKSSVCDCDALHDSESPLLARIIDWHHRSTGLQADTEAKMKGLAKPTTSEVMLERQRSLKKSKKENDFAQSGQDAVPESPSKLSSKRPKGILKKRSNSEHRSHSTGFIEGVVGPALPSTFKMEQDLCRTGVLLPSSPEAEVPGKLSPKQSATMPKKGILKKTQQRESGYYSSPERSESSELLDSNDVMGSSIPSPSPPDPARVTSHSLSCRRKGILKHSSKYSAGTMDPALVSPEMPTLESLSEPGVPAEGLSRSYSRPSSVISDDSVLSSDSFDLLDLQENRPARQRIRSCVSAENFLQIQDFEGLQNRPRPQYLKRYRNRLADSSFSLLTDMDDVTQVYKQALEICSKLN

In a further test the target is T2, PRKG1 (Homo sapiens, UniProt Q13976).
T2 sequence (Q13976 1-671): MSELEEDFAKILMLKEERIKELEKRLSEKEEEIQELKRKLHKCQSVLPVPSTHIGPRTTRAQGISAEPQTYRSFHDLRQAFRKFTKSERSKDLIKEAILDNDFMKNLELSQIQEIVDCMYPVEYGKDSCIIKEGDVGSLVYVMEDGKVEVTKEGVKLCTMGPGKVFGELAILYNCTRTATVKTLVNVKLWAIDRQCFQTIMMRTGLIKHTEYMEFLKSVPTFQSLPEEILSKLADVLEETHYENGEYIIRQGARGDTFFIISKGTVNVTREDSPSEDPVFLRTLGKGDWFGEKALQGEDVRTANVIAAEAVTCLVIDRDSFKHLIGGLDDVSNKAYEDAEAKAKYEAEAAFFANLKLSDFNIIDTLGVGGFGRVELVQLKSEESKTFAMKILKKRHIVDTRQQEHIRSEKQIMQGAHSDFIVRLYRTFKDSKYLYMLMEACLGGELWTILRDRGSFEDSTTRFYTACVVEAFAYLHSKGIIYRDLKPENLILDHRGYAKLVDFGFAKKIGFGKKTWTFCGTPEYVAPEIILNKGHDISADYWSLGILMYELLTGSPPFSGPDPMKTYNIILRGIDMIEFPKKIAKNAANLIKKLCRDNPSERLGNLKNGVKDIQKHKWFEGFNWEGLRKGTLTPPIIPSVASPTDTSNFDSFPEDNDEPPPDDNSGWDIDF

The target of another test is T3, FLT3(R834Q) (Homo sapiens, UniProt P36888, R834Q).
T3 sequence (P36888 1-993 R834Q): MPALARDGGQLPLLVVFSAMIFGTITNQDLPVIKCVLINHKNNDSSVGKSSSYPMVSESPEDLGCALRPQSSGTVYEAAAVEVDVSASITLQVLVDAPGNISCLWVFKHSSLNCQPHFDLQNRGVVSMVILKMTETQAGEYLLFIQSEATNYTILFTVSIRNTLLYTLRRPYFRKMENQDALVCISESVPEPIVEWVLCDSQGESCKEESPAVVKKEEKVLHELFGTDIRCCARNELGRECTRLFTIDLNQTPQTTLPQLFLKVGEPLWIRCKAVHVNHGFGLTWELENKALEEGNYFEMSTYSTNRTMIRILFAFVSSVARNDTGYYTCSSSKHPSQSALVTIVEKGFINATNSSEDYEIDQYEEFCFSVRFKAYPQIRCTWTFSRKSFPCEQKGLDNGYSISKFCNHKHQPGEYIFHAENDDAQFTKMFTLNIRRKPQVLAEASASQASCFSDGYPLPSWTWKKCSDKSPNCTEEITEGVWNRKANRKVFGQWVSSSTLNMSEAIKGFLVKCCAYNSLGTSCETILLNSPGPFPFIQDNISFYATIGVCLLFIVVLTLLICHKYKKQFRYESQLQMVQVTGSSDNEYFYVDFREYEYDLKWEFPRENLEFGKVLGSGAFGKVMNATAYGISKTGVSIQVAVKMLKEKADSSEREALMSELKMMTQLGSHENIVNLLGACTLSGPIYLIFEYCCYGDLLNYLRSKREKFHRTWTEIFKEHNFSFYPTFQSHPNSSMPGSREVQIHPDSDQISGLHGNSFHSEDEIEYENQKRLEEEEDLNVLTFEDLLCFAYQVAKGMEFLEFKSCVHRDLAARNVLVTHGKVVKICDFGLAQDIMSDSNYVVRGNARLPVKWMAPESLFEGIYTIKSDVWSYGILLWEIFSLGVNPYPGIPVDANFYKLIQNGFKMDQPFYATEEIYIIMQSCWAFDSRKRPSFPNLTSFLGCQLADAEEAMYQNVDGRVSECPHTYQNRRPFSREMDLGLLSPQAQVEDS

The mark [1] stands for this setting: read-out: Niraparib (MK-4827) / %Ctrl @ 10000nM.
Setting [2] is: read-out: Talazoparib (BMN 673) / %Ctrl @ 10000nM.
The mark [3] stands for this setting: read-out: Rucaparib / %Ctrl @ 10000nM, binding competition, % of control.
The mark [4] stands for this setting: read-out: Olaparib / %Ctrl @ 10000nM.

The structures appear in SMILES notation. Like-named read-outs stand apart in the source and are kept apart here.

MET(Y1235D), sequence (P08581 whole entry Y1235D): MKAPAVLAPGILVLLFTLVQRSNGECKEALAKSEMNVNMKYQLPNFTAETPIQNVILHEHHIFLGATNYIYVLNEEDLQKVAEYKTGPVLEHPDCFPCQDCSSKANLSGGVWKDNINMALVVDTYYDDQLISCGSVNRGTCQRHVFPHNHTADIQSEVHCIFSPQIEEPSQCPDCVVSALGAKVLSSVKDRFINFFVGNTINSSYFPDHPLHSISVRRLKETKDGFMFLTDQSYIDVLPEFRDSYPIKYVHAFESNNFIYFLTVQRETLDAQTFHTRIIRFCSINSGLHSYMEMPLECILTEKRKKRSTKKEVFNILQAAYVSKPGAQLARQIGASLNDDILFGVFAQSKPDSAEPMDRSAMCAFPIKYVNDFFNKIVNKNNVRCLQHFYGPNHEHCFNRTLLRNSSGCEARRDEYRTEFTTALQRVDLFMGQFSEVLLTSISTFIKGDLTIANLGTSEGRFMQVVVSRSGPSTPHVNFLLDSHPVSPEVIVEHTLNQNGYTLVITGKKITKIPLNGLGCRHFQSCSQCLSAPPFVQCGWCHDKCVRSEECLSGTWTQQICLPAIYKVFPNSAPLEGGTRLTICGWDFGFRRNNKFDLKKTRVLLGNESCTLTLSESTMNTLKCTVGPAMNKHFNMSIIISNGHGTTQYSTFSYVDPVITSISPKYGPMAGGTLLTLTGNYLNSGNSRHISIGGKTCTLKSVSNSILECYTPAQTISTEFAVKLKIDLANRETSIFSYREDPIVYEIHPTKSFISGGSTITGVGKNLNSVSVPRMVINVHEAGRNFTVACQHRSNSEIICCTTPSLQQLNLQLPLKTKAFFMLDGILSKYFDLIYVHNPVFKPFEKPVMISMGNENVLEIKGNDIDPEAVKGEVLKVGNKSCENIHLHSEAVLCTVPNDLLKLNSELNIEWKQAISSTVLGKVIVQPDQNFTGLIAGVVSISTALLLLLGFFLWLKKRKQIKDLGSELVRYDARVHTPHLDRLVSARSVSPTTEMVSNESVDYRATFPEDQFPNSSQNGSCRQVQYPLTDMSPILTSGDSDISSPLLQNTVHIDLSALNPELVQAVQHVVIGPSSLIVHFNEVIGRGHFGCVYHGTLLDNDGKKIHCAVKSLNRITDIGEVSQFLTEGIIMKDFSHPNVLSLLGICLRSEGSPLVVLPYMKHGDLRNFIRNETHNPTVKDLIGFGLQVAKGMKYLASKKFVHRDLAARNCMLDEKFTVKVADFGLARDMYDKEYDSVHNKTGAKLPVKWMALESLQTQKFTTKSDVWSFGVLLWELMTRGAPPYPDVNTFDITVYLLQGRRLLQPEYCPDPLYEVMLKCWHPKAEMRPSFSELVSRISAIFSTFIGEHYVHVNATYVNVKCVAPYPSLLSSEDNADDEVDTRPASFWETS
PKN1, sequence (Q16512 whole entry): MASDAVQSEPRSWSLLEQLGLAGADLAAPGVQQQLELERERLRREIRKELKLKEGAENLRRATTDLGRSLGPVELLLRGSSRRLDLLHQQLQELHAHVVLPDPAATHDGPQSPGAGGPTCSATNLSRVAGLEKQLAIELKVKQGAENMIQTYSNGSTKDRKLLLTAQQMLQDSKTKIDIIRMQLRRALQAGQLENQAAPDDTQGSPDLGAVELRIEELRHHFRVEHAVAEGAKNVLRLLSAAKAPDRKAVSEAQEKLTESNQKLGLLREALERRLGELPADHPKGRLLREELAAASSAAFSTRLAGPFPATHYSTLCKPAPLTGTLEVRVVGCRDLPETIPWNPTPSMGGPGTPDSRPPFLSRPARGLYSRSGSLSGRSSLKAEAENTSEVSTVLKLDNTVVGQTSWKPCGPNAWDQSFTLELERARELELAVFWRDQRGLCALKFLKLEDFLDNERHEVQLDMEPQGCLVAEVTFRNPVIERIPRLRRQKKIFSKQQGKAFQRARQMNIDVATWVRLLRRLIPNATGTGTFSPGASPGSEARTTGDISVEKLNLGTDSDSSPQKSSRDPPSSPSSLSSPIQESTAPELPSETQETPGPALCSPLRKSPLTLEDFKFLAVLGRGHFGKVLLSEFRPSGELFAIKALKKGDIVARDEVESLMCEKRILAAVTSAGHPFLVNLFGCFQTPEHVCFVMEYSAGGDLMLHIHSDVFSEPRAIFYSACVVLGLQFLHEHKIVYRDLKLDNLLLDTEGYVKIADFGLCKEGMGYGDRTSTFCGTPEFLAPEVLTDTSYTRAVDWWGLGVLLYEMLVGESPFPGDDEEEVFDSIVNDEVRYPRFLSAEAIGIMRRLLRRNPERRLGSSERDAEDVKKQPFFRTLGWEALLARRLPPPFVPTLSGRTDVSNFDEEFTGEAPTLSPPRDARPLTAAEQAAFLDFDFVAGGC
CIT, sequence (O14578 whole entry): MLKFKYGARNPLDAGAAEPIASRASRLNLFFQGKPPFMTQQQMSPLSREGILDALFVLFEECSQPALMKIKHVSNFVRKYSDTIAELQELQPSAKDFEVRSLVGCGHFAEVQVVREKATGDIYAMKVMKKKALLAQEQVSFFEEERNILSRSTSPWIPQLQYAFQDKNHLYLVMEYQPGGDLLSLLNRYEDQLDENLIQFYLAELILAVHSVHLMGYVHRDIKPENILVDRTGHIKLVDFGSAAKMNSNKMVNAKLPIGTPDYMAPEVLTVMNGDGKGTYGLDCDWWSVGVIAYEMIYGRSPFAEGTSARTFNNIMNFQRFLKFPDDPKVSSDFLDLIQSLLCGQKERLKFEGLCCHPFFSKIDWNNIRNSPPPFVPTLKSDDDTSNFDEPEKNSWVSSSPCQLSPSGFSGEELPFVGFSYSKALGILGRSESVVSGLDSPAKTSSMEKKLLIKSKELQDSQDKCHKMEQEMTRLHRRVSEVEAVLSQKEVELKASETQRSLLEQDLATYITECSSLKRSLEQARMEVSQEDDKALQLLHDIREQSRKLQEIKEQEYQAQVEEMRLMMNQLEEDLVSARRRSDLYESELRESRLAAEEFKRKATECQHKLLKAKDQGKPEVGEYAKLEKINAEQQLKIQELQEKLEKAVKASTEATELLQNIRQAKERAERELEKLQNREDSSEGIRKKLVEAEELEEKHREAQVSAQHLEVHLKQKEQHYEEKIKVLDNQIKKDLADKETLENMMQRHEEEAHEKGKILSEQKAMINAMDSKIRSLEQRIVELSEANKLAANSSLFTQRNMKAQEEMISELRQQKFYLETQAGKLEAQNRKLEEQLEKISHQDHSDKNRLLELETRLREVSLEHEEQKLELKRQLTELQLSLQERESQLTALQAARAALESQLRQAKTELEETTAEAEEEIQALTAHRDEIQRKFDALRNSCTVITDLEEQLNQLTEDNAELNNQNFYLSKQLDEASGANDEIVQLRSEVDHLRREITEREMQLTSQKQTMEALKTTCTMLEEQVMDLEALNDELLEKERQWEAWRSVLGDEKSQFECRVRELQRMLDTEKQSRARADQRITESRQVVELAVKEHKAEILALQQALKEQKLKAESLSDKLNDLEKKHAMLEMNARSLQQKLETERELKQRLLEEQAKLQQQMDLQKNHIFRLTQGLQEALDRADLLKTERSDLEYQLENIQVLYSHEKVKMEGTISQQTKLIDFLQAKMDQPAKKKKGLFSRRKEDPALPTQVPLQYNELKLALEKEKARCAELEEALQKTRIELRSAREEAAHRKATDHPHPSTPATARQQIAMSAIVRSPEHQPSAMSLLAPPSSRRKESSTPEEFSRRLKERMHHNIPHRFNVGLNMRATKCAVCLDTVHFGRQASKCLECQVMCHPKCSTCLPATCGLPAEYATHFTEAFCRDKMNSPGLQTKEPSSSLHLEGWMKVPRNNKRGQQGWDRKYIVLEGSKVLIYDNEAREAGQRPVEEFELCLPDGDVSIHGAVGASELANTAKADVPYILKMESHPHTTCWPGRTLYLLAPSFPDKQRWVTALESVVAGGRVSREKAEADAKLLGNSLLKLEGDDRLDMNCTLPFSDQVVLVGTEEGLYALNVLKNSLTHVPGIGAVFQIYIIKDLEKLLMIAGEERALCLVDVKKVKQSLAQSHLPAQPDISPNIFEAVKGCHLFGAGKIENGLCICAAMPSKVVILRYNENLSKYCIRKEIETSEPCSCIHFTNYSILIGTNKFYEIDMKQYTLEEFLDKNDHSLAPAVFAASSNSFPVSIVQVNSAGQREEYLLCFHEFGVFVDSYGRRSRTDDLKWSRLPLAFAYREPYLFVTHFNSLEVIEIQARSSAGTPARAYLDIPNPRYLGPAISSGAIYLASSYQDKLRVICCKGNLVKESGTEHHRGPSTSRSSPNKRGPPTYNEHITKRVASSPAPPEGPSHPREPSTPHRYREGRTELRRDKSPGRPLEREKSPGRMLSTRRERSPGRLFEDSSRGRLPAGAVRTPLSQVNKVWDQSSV
MKNK2, sequence (Q9HBH9 whole entry): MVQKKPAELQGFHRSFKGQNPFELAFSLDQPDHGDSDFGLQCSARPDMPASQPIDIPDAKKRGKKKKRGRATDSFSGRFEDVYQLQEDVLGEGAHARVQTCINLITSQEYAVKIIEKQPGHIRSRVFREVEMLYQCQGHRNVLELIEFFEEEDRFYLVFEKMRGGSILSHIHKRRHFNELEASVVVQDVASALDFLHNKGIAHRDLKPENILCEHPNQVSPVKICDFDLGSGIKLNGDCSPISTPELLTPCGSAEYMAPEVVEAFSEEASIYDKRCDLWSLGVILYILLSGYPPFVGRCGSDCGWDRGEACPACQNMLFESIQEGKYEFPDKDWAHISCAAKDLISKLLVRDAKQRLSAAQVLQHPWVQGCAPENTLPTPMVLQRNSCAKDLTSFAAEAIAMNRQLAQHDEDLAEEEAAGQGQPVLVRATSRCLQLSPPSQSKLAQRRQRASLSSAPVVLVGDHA

Turning to `NC(=O)c1cccc2cn(-c3ccc([C@@H]4CCCNC4)cc3)nc12` [Niraparib], the percent of control binding at 10 µM was 69% on PKN1 (setting [1]); 75% at MET(Y1235D) (setting [1]); 56% at ARK5 (setting [1]); 71% at MKNK2 (setting [1]); 100% on PRKG1 (setting [1]); 10% at CIT (setting [1]). Moreover, the percent of control binding at 10 µM on FLT3(R834Q) (setting [1]) amounted to 100%.
For the compound `Cn1ncnc1[C@H]1c2n[nH]c(=O)c3cc(F)cc(c23)N[C@@H]1c1ccc(F)cc1` [Talazoparib], the percent of control binding at 10 µM on PKN1 (setting [2]) came to 74%; on MET(Y1235D) (setting [2]), 96%; on ARK5 (setting [2]) it was 100%; at MKNK2 (setting [2]) it was 80%; at PRKG1 (setting [2]), 57%; on CIT (setting [2]) it was 98%. The percent of control binding at 10 µM on FLT3(R834Q) (setting [2]) amounted to 100%.
Turning to `CNCc1ccc(-c2[nH]c3cc(F)cc4c3c2CCNC4=O)cc1` [Rucaparib], the percent of control binding at 10 µM came out at 78% at PKN1 (setting [3]); 92% on MET(Y1235D) (setting [3]); 100% at ARK5 (setting [3]); 38% at MKNK2 (setting [3]); 91% on PRKG1 (setting [3]); 4.8% at CIT (setting [3]). Further, the “Rucaparib / %Ctrl @ 10000nM” value at FLT3(R834Q) (binding competition, % of control) is given as 81%.
`O=C(c1cc(Cc2n[nH]c(=O)c3ccccc23)ccc1F)N1CCN(C(=O)C2CC2)CC1` [Olaparib]: the percent of control binding at 10 µM was 83% at PKN1 (setting [4]); 82% on MET(Y1235D) (setting [4]); 99% on ARK5 (setting [4]); 87% on MKNK2 (setting [4]); 100% on PRKG1 (setting [4]); 87% at CIT (setting [4]). At FLT3(R834Q) (setting [4]), the percent of control binding at 10 µM turned out to be 79%.
